Measurements reported in ChEMBL document CHEMBL1123728, “Rational design of 4-[(methylsulfonyl)amino]benzamides as class III antiarrhythmic agents” (J Med Chem, 1987).
Active and inactive are the calls of the source.

Tests used:
[1] = organism: Canis familiaris; assay: Concentration required for 20% increase in action potential duration of canine Purkinje fiber (intracellular electrophysiology) in vitro measured at 95% repolarization was reported. Range is between 9-63; assay type: functional, Canis lupus familiaris
[2] = tested on: Canis familiaris; assay: Efficacy in blocking sustained ventricular tachycardia (rate>250 bpm) elicited by programmed electrical stimulation in conscious dogs after iv administration of dose 3 mg/kg; no. of successful exp / total no. of exp = 4/4; assay type: functional, Canis lupus familiaris, Cardiac ventricle
[3] = organism: Canis familiaris; assay: Concentration required for 20% increase in the functional refractory period of canine ventricular muscle (extracellular electrophysiology) in vitro was reported. Range is between 9-4000; parameters: species or system Canis lupus familiaris
[4] = tested on: Canis familiaris; assay: Efficacy in blocking sustained ventricular tachycardia (rate>250 bpm) elicited by programmed electrical stimulation in anesthetized dogs after iv administration of dose 1 mg/kg; no. of successful exp / total no. of exp = 2/7; assay type: functional, Canis lupus familiaris, Cardiac ventricle
[5] = organism: Canis familiaris; assay: Concentration required for 20% increase in action potential duration of canine Purkinje fiber (intracellular electrophysiology) in vitro measured at 95% repolarization was reported; NR means not reached; assay type: functional; conditions: Canis lupus familiaris
[6] = organism: Canis familiaris; assay: Concentration required for 20% increase in the functional refractory period of canine ventricular muscle (extracellular electrophysiology) in vitro was reported; NR means not reached; conditions: Canis lupus familiaris
[7] = tested on: Canis familiaris; assay: Efficacy in blocking sustained ventricular tachycardia (rate>250 bpm) elicited by programmed electrical stimulation in anesthetized dogs after iv administration of dose 9 mg/kg; no. of successful exp / total no. of exp = 4/4; assay type: functional, Canis lupus familiaris, Cardiac ventricle
[8] = organism: Canis familiaris; assay: Concentration required for 20% increase in action potential duration of canine Purkinje fiber (intracellular electrophysiology) in vitro measured at 95% repolarization was reported. NR means 10% increase in APD95 (C10APD95) was observed at 30 um(22; assay type: functional; conditions: Canis lupus familiaris
[9] = organism: Canis familiaris; assay: Concentration required for 20% increase in the functional refractory period of canine ventricular muscle (extracellular electrophysiology) in vitro was reported. Range is between 5.6-800; parameters: species or system Canis lupus familiaris
[10] = organism: Canis familiaris; assay: Concentration required for 20% increase in action potential duration of canine Purkinje fiber (intracellular electrophysiology) in vitro measured at 95% repolarization was reported. Range is between 1.0-34; assay type: functional, Canis lupus familiaris
[11] = organism: Canis familiaris; assay: Concentration required for 20% increase in the functional refractory period of canine ventricular muscle (extracellular electrophysiology) in vitro was reported. Range is between 1.6-25; parameters: species or system Canis lupus familiaris
[12] = tested on: Canis familiaris; assay: Efficacy in blocking sustained ventricular tachycardia (rate>250 bpm) elicited by programmed electrical stimulation in anesthetized dogs after iv administration of dose 1.4 mg/kg; no. of successful exp / total no. of exp = 3/5; assay type: functional, Canis lupus familiaris, Cardiac ventricle
[13] = organism: Canis familiaris; assay: Concentration required for 20% increase in the functional refractory period of canine ventricular muscle (extracellular electrophysiology) in vitro was reported;NR means not reached; conditions: Canis lupus familiaris
[14] = organism: Canis familiaris; assay: Concentration required for 20% increase in action potential duration of canine Purkinje fiber (intracellular electrophysiology) in vitro measured at 95% repolarization was reported;NR means not reached; assay type: functional; conditions: Canis lupus familiaris
[15] = tested on: Canis familiaris; assay: Efficacy in blocking sustained ventricular tachycardia (rate>250 bpm) elicited by programmed electrical stimulation in 4 anesthetized dogs after iv administration of dose 1 mg/kg; no. of successful exp / total no. of exp = 4/4; assay type: functional, Canis lupus familiaris, Cardiac ventricle
[16] = tested on: Mus musculus; assay: Acute toxicity after intraperitoneal administration in mouse was determined; range 250-300 mg/kg; assay type: functional; conditions: ip
[17] = tested on: Canis familiaris; assay: Efficacy in blocking sustained ventricular tachycardia (rate>250 bpm) elicited by programmed electrical stimulation in conscious dogs. Administered orally at a dose of 2.5 mg/kg after iv administration; no. of successful exp / total no. of exp = 5 /6; assay type: functional, Canis lupus familiaris, Cardiac ventricle; conditions: route oral
[18] = organism: Canis familiaris; assay: Concentration required for 20% increase in the functional refractory period of canine ventricular muscle (extracellular electrophysiology) in vitro was reported. Range is between 9-35; parameters: species or system Canis lupus familiaris
[19] = pKa2 was determined; assay type: physicochemical; conditions: read-out: pKa2
[20] = organism: Canis familiaris; assay: Concentration required for 20% increase in action potential duration of canine Purkinje fiber (intracellular electrophysiology) in vitro measured at 95% repolarization was reported. RAnge is between 2.0-11.4; assay type: functional, Canis lupus familiaris
[21] = Bioavailability after peroral administration (3 mg/kg) in dog was determined; Range 41-98%; assay type: ADME, organism-based, Canis lupus familiaris; conditions: in vivo, po, read-out: Bioavailabiility
[22] = Half life period was determined; conditions: dog
[23] = pKa1 was determined; assay type: physicochemical; conditions: read-out: pKa1
[24] = organism: Canis familiaris; assay: Concentration required for 20% increase in action potential duration of canine Purkinje fiber (intracellular electrophysiology) in vitro measured at 95% repolarization was reported. Range is between 0.08-5; assay type: functional, Canis lupus familiaris
[25] = organism: Canis familiaris; assay: Concentration required for 20% increase in the functional refractory period of canine ventricular muscle (extracellular electrophysiology) in vitro was reported. Range is between 0.8-11; parameters: species or system Canis lupus familiaris
[26] = tested on: Canis familiaris; assay: Efficacy in blocking sustained ventricular tachycardia (rate>250 bpm) elicited by programmed electrical stimulation in anesthetized dogs after iv administration of dose 0.3 mg/kg; no. of successful exp / total no. of exp = 7/10; assay type: functional, Canis lupus familiaris, Cardiac ventricle
[27] = tested on: Canis familiaris; assay: Efficacy in blocking sustained ventricular tachycardia (rate>250 bpm) elicited by programmed electrical stimulation in conscious dogs after iv administration of dose 1 mg/kg; no. of successful exp / total no. of exp = 5/6; assay type: functional, Canis lupus familiaris, Cardiac ventricle
[28] = organism: Canis familiaris; assay: Decrease in Vmax in isolated canine Purkinje fibers at 10 uM; assay type: functional, Canis lupus familiaris, Purkinje fiber
[29] = organism: Canis familiaris; assay: Concentration required for 20% increase in action potential duration of canine Purkinje fiber (intracellular electrophysiology) in vitro measured at 95% repolarization was reported. Range is between 0.03-2; assay type: functional, Canis lupus familiaris
[30] = organism: Canis familiaris; assay: Concentration required for 20% increase in the functional refractory period of canine ventricular muscle (extracellular electrophysiology) in vitro was reported;NR=at 10 uM the FRP was increased 13%; conditions: Canis lupus familiaris
[31] = organism: Canis familiaris; assay: Concentration required for 20% increase in action potential duration of canine Purkinje fiber (intracellular electrophysiology) in vitro measured at 95% repolarization was reported. Range is between 0.01-0.03; assay type: functional, Canis lupus familiaris
[32] = organism: Canis familiaris; assay: Concentration required for 20% increase in the functional refractory period of canine ventricular muscle (extracellular electrophysiology) in vitro was reported. Range is between 0.05-3.7; parameters: species or system Canis lupus familiaris
[33] = organism: Canis familiaris; assay: Concentration required for 20% increase in the functional refractory period of canine ventricular muscle (extracellular electrophysiology) in vitro was reported, range is 0.3-1.1; parameters: species or system Canis lupus familiaris
[34] = organism: Canis familiaris; assay: Concentration required for 20% increase in action potential duration of canine Purkinje fiber (intracellular electrophysiology) in vitro measured at 95% repolarization was reported. Range is between 0.2-5; assay type: functional, Canis lupus familiaris
[35] = tested on: Canis familiaris; assay: Efficacy in blocking sustained ventricular tachycardia (rate>250 bpm) elicited by programmed electrical stimulation in anesthetized dogs after iv administration of dose 0.8 mg/kg; no. of successful exp / total no. of exp = 5/9; assay type: functional, Canis lupus familiaris, Cardiac ventricle
[36] = tested on: Canis familiaris; assay: Efficacy in blocking sustained ventricular tachycardia (rate>250 bpm) elicited by programmed electrical stimulation in conscious dogs after iv administration of 0.8 mg/kg; no. of successful exp / total no. of exp = 5/5; assay type: functional, Canis lupus familiaris, Cardiac ventricle
[37] = tested on: Canis familiaris; assay: Efficacy in blocking sustained ventricular tachycardia (rate>250 bpm) elicited by programmed electrical stimulation in anesthetized dogs after iv administration of 0.5 mg/kg; no. of successful exp / total no. of exp = 4/4; assay type: functional, Canis lupus familiaris, Cardiac ventricle
[38] = organism: Canis familiaris; assay: Concentration required for 20% increase in the functional refractory period of canine ventricular muscle (extracellular electrophysiology) in vitro was reported. Range is between 1.2-150; parameters: species or system Canis lupus familiaris
[39] = organism: Canis familiaris; assay: Concentration required for 20% increase in action potential duration of canine Purkinje fiber (intracellular electrophysiology) in vitro measured at 95% repolarization was reported. Range is between 1.8-2.0; assay type: functional, Canis lupus familiaris
[40] = tested on: Canis familiaris; assay: Efficacy in blocking sustained ventricular tachycardia (rate>250 bpm) elicited by programmed electrical stimulation in anesthetized dogs after iv administration of dose 1.0 mg/kg; no. of successful exp / total no. of exp = 3/4; assay type: functional, Canis lupus familiaris, Cardiac ventricle
[41] = organism: Canis familiaris; assay: Concentration required for 20% increase in action potential duration of canine Purkinje fiber (intracellular electrophysiology) in vitro measured at 95% repolarization was reported. Range is between 0.2-0.5; assay type: functional, Canis lupus familiaris
[42] = organism: Canis familiaris; assay: Concentration required for 20% increase in the functional refractory period of canine ventricular muscle (extracellular electrophysiology) in vitro was reported; parameters: species or system Canis lupus familiaris
[43] = tested on: Canis familiaris; assay: Efficacy in blocking sustained ventricular tachycardia (rate>250 bpm) elicited by programmed electrical stimulation in conscious dogs after iv administration of dose 0.5 mg/kg; no. of successful exp / total no. of exp = 4/4; assay type: functional, Canis lupus familiaris, Cardiac ventricle

SMILES: CC(C)NCC(O)c1ccc(NS(C)(=O)=O)cc1 (racemic) [SOTALOL]
- C20 APD95 [1]: 22 µM
- Efficacy [2]: 4
- C20 FRP [3]: 52 µM
- Efficacy [4]: 2

SMILES: CCN(CC)CCNC(=O)c1ccc(NS(=O)(=O)CC)cc1
- C20 APD95 [5]: Not reached
- C20 FRP [6]: Not reached

SMILES: CCN(CC)CCNC(=O)c1ccc(NC(C)=O)cc1 [ACECAINIDE]
- Efficacy [7]: 4
- C20 APD95 [8]: Partially active
- C20 FRP [9]: 60 µM

SMILES: CCN(CC)CCCNC(=O)c1ccc(NS(C)(=O)=O)cc1
- C20 APD95 [10]: 2 µM
- C20 FRP [11]: 4 µM
- Efficacy [12]: 3

SMILES: CCNCCNC(=O)c1ccc(NS(C)(=O)=O)cc1
- C20 FRP [13]: Not reached
- C20 APD95 [14]: Not reached

SMILES: CCN(CC)CCNC(=O)c1ccc(NS(=O)(=O)C(F)(F)F)cc1
- C20 FRP [13]: Not reached
- C20 APD95 [14]: Not reached

SMILES: CCN(CC)CCNC(=O)c1ccc(NS(C)(=O)=O)cc1.Cl [SEMATILIDE HYDROCHLORIDE]
- Efficacy [15]: 4
- LD50 [16]: 250 mg/kg
- Efficacy [17]: 5
- C20 FRP [18]: 17 µM
- pKa [19]: 9.51
- C20 APD95 [20]: 3.5 µM
- bioavailability [21]: 41%
- half-life [22]: 2.7 h
- pKa [23]: 7.6

SMILES: CCCCCCCNCCNC(=O)c1ccc(NS(C)(=O)=O)cc1.Cl
- C20 APD95 [24]: 0.2 µM
- C20 FRP [25]: 4 µM

SMILES: CCN(CC)CCNC(=O)c1ccc(N(C)S(C)(=O)=O)cc1
- C20 FRP [6]: Not reached
- C20 APD95 [14]: Not reached

SMILES: CCCCCCC[N+](CC)(CC)CCCCc1ccc(Cl)cc1 [CLOFILIUM]
- Efficacy [26]: 7
- Efficacy [27]: 5
- delta Vmax [28]: -18%
- C20 APD95 [29]: 0.2 µM
- C20 FRP [30]: Partially active

SMILES: CCCCCCCN(CC)CCNC(=O)c1ccc(NS(C)(=O)=O)cc1
- C20 APD95 [31]: 0.02 µM
- C20 FRP [32]: 0.5 µM

SMILES: C=CCN(CCN(CC)CC)C(=O)c1ccc(NS(C)(=O)=O)cc1
- C20 FRP [33]: 0.5 µM
- C20 APD95 [34]: 0.5 µM
- Efficacy [35]: 5

SMILES: CCN(CC)C1CCC(NC(=O)c2ccc(NS(C)(=O)=O)cc2)CC1.Cl (configuration not stated)
- Efficacy [36]: 5
- Efficacy [37]: 4
- C20 FRP [38]: 3 µM
- C20 APD95 [39]: 1.9 µM
- Efficacy [40]: 3
- C20 APD95 [41]: 0.4 µM
- C20 FRP [42]: 40 µM
- Efficacy [43]: 4
